Source: patent US12358915B2, “METTL3 inhibitory compounds” (STORM THERAPEUTICS LTD., priority 2019, dated 2025)
Like-named read-outs stand apart in the source and are kept apart here.

Biological target: T1, METTL3/14 (Homo sapiens, UniProt Q86U44)
T1 construct: The enzyme used was full-length his-tagged METTL3; His; made in house
Assay: METTL3/14 methyltransferase assay (METTL3_14 RFMS, RapidFire mass spectrometry);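 note: recombinant His-tagged METTL3 with FLAG-tagged METTL14 from baculovirus, SAH product quantified by mass spectrometry against isotope-labelled internal standards, 60 min at room temperature, scaled between no-RNA and DMSO-only wells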
Format: biochemical
Settings: read-out: METTL3_14 RFMS IC50

[1] = 5 nM METTL3/14, 0.2 μM RNA substrate, 0.5 μM SAM, lower limit of the assay IC50=5 nM, Compounds 63-265
[2] = 5 nM METTL3/14, 0.2 μM RNA substrate, 0.5 μM SAM, lower limit of the assay IC50=5 nM, Compounds 266-351
[3] = 5 nM METTL3/14, 0.2 μM RNA substrate, 0.5 μM SAM, lower limit of the assay IC50=5 nM, Compounds 1-62

T1 sequence (Q86U44 whole entry): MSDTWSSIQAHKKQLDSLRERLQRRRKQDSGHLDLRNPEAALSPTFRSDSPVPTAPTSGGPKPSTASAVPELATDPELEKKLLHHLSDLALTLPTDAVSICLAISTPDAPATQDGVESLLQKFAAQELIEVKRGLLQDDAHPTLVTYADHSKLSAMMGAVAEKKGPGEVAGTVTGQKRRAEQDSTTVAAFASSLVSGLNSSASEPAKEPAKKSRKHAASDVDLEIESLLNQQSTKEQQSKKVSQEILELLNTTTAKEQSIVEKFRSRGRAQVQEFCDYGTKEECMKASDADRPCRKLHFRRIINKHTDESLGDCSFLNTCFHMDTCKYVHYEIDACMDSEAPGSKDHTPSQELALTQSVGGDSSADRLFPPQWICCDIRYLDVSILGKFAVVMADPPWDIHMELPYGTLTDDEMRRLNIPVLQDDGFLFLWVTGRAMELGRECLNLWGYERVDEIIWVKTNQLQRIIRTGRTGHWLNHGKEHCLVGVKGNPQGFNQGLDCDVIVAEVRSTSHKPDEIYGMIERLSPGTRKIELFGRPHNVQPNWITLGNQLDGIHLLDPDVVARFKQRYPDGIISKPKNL
T1 sequence (Q9HCE5 whole entry partner): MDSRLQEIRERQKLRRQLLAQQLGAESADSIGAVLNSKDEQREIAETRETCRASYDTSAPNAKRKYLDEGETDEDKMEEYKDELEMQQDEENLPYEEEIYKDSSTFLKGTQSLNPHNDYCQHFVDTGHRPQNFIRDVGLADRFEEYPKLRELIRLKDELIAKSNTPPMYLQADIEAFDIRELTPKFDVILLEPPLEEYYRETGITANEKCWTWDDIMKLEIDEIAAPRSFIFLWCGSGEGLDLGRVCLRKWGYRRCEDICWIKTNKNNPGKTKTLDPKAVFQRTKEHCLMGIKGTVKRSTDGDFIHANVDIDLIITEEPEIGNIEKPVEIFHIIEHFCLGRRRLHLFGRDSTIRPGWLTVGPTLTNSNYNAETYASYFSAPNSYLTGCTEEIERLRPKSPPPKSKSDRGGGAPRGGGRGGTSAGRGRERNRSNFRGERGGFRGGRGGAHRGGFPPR

IC50 [1] [nM]	Structure (SMILES)	also measured
57.6	O=C(NCc1cn2cc(CNCC3(F)CCCCC3)ccc2n1)c1cc(=O)n2ccccc2n1 [Compound 91, N-{[6-({[(1-fluorocyclohexyl)methyl]amino}methyl)imidazo [1,2-a]pyridin-2-yl]methyl}-4-oxo-4H-pyrido[1,2-a]pyrimidine-2-carboxamide]	–
239	CC(C)(C)[C@H]1COC[C@@H](c2ccc3nc(CNC(=O)c4cc(=O)n5ccccc5n4)cn3c2)N1 [Example 228, N-({6-[(3R,5S)-5-tert-butylmorpholin-3-yl]imidazo[1,2-a]pyridin-2-yl}methyl)-4-oxo-4H-pyrido[1,2-a]pyrimidine-2-carboxamide]	–
18.1	O=C(NCc1cn2cc(CNCC3CCC(F)(F)CC3)ccc2n1)c1cc(=O)n2ccccc2n1 [Compound 101, N-{[6-({[(4,4-difluorocyclohexyl)methyl]amino}methyl)imidazo [1,2-a]pyridin-2-yl]methyl}-4-oxo-4H-pyrido [1,2-a]pyrimidine-2-carboxamide]	–
18.3	O=C(NCc1cn2cc(CNC(C3CC3)C3CC3)ccc2n1)c1cc(=O)n2ccccc2n1 [Compound 135, N-[(6-{[(dicyclopropyl-methyl)amino]methyl}imidazo [1,2-a]pyridin-2-yl)methyl]-4-oxo-4H-pyrido [1,2-a]pyrimidine-2-carboxamide]	–
260	O=C(NCc1cn2cc(CNCC3CCCCN3)ccc2n1)c1cc(=O)n2ccccc2n1 (centres unmarked) [Compound 240, 4-oxo-N-{[6-({[(piperidin-2-yl)methyl]amino}methyl)imidazo[1,2-a]pyridin-2-yl]methyl}-4H-pyrido[1,2-a]pyrimidine-2-carboxamide]	–
179	Cc1ccc2c(=O)cc(C(=O)NCc3cn4cc(CNCC5CCCCC5)ccc4n3)oc2c1 [Compound 181, N-[(6-{[(cyclohexylmethyl)amino]methyl}imidazo[1,2-a]pyridin-2-yl)methyl]-7-methyl-4-oxo-4H-chromene-2-carboxamide]	–
–	NC1(CNCc2ccc3nc(Cn4cc(-c5ccc(F)c6[nH]ncc56)nn4)cn3c2)CCCC1 [Example 309, 1-[[[2-[[4-(7-fluoro-1H-indazol-4-yl)triazol-1-yl]methyl]imidazo[1,2-a]pyridin-6-yl]methylamino]methyl]cyclopentanamine]	IC50 [2]: 120 nM
195	O=C(NCc1cn2cc([C@H]3COC[C@@H](C4CCCCC4)N3)ccc2n1)c1cc(=O)c2ccccc2o1 [Example 264, N-({6-[(3S,5R)-5-cyclohexylmorpholin-3-yl]imidazo[1,2-a]pyridin-2-yl}methyl)-4-oxo-4H-chromene-2-carboxamide]	–
–	O=C(NCc1cn2cc(CNC[C@@H]3C[C@H]4CC[C@@H]3C4)ccc2n1)c1cc(=O)n2ccccc2n1 [Compound 347, N-({6-[({[(1R,2R,4S)-bicyclo[2.2.1]heptan-2-yl]methyl}amino)methyl]imidazo[1,2-a]pyridin-2-yl}methyl)-4-oxo-4H-pyrido[1,2-a]pyrimidine-2-carboxamide]	IC50 [2]: 7.5 nM
132	CC(NCC1CCCCC1)c1ccc2nc(CNC(=O)c3cc(=O)n4ccccc4n3)cn2c1 (centres unmarked) [Compound 189, N-[(6-{1-[(cyclohexyl-methyl)amino]ethyl}imidazo [1,2-a]pyridin-2-yl)methyl]-4-oxo-4H-pyrido[1,2-a]pyrimidine-2-carboxamide]	–
3810	O=C(NCc1cn2cc(CNc3cccc(Cl)c3)ccc2n1)c1cc(=O)n2ccccc2n1 [Compound 158, N-[(6-{[(3-chlorophenyl)amino]methyl}imidazo[1,2-a]pyridin-2-yl)methyl]-4-oxo-4H-pyrido[1,2-a]pyrimidine-2-carboxamide]	–
87.7	O=C(NCc1cn2cc(CN3CCc4ccccc4C3)ccc2n1)c1cc(=O)n2ccccc2n1 [Compound 131, 4-oxo-N-({6-[(1,2,3,4-tetrahydroisoquinolin-2-yl)methyl]imidazo [1,2-a]pyridin-2-yl}methyl)-4H-pyrido [1,2-a]pyrimidine-2-carboxamide]	–
–	O=C(NCc1cn2cc(CN3CC4CCC3C4)ccc2n1)c1cc(=O)n2ccccc2n1 (centres unmarked) [Compound 350, N-{[6-({2-azabicyclo[2.2.1]heptan-2-yl}methyl)imidazo[1,2-a]pyridin-2-yl]methyl}-4-oxo-4H-pyrido[1,2-a]pyrimidine-2-carboxamide]	IC50 [2]: 56.2 nM
8070	CC(=O)N1CCN(Cc2ccc3nc(CNC(=O)c4cc(=O)n5ccccc5n4)cn3c2)CC1 [Compound 167, N-({6-[(4-acetylpiperazin-1-yl)methyl]imidazo[1,2-a]pyridin-2-yl}methyl)-4-oxo-4H-pyrido[1,2-a]pyrimidine-2-carboxamide]	–
143	O=C(NCc1cn2cc(CNCCc3cccnc3)ccc2n1)c1cc(=O)n2ccccc2n1 [Compound 107, 4-oxo-N-{[6-({[2-(pyridin-3-yl)ethyl]amino}methyl)imidazo[1,2-a]pyridin-2-yl]methyl}-4H-pyrido[1,2-a]pyrimidine-2-carboxamide]	–
114	O=C(NCc1cn2cc(CNC(CO)C3CCCCC3)ccc2n1)c1cc(=O)n2ccccc2n1 (centres unmarked) [Compound 168, N-[(6-{[(1-cyclohexyl-2-hydroxyethyl)amino]methyl}imidazo[1,2-a]pyridin-2-yl)methyl]-4-oxo-4H-pyrido[1,2-a]pyrimidine-2-carboxamide]	–
–	CC(C)(C)CNCc1ccc2nc(Cn3cc(-c4cc(Cl)cc5[nH]ncc45)nn3)cn2c1 [Example 304, N-[[2-[[4-(6-chloro-1H-indazol-4-yl)triazol-1-yl]methyl]imidazo[1,2-a]pyridin-6-yl]methyl]-2,2-dimethyl-propan-1-amine]	IC50 [2]: 6.1 nM
–	Cc1ccc2nc(Cc3nnc(-c4cccc5[nH]ncc45)o3)cn2c1 [Compound 62, 2-(1H-indazol-4-yl)-5-[(6-methylimidazo[1,2-a]pyridin-2-yl)methyl]-1,3,4-oxadiazole]	IC50 [3]: 8760 nM
–	C#Cc1cc(C(=O)NCc2cn3cc(C)ccc3n2)c2cn[nH]c2c1 [Compound 14, 6-ethynyl-N-({6-methylimidazo[1,2-a]pyridin-2-yl}methyl)-1H-indazole-4-carboxamide]	IC50: 5900 nM
–	O=C(NCc1cn2cc(O)ccc2n1)c1cccc2[nH]ncc12 [Compound 43, N-({6-hydroxyimidazo[1,2-a]pyridin-2-yl}methyl)-1H-indazole-4-carboxamide]	IC50 [3]: 1290 nM
99	CN(Cc1ccc2nc(CNC(=O)c3cc(=O)n4ccccc4n3)cn2c1)CC1CC1 [Compound 136, N-[(6-{[(cyclopropyl-methyl)(methyl)amino]methyl}imidazo[1,2-a]pyridin-2-yl)methyl]-4-oxo-4H-pyrido[1,2-a]pyrimidine-2-carboxamide]	–
2170	O=C(NCc1cn2ccc(CNCC3CCCCC3)cc2n1)c1cc(=O)n2ccccc2n1 [Compound 223, N-[(7-{[(cyclohexylmethyl)amino]methyl}imidazo[1,2-a]pyridin-2-yl)methyl]-4-oxo-4H-pyrido[1,2-a]pyrimidine-2-carboxamide]	–
1020	O=C(NCc1cn2cc(CN3CCC(c4ccccc4)C3)ccc2n1)c1cc(=O)n2ccccc2n1 (centres unmarked) [Compound 97, 4-oxo-N-({6-[(3-phenylpyrrolidin-1-yl)methyl]imidazo [1,2-a]pyridin-2-yl}methyl)-4H-pyrido[1,2-a] pyrimidine-2-carboxamide]	–
